Measurements: ChEMBL document CHEMBL1134748, “Identification and characterization of a potential ischemia-selective N-methyl-D-aspartate (NMDA) receptor ion-channel blocker, CNS 5788” (Bioorg Med Chem Lett, 2001)

Tests used:
[1] = molecular target: Sodium channel alpha subunits; brain (Types I, II, III) (Homo sapiens, UniProt P35498+Q99250+Q9NY46); assay: Neuronal sodium channel blocking activity by [14C]guanidinium flux assay; assay type: functional
[2] = Cardiac sodium channel blocking activity by [14C]guanidinium flux assay; assay type: functional
[3] = molecular target: Glutamate [NMDA] receptor; assay: In vitro displacement of [3H]MK-801 from N-methyl-D-aspartate glutamate receptor; assay type: protein-complex assay
Rattus norvegicus [4] = assay: Compound was tested in hypoxia -ischemia reduction model for percent reduction in lesion volume at the dose 20 mg/kg (ip)
[5] = Lowest effective intravenous dose required to observe the behavioral effects (excitation); assay type: functional
[6] = Half life value of the compound; assay type: ADME; settings: rat
Rattus norvegicus [7] = assay: Compound was tested in hypoxia -ischemia reduction model for percent reduction in lesion volume at the dose 10 mg/kg (ip)
Rattus norvegicus [8] = assay: Compound was tested in rotarod motor assay and the effective intravenous dose required to fall from the rod was reported.; assay type: functional
Rattus norvegicus [9] = assay: Tested in rat middle cerebral artery occlusion model (MACO model) and percent reduction in total lesion volume at the dose of 4.5 mg/kg (combination ip and iv); settings: route intraperitoneal
Mus musculus = organism: Mus musculus; assay: Effective dose required to block the audiogenic seizures.; assay type: functional
Rattus norvegicus [10] = assay: Compound was tested in hypoxia -ischemia reduction model for percent reduction in lesion volume at the dose 4 mg/kg (iv); assay type: functional
Rattus norvegicus [11] = assay: Tested in rat middle cerebral artery occlusion model (MACO model) and percent reduction in total lesion volume at the dose of 1.5 mg/kg (combination ip and iv); assay type: functional; settings: route intraperitoneal

SMILES	IC50 [1] [µM]	IC50 [2] [µM]	Ki [3] [µM]	Reduction (Rattus norvegicus [4]) [%]	Dose [5] [mg/kg]	half-life [6] [min]	Reduction (Rattus norvegicus [7]) [%]	ED50 (Rattus norvegicus [8]) [mg/kg]	Reduction (Rattus norvegicus [9]) [%]	ED50 (Mus musculus) [mg/kg]	T1/2 [6] [min]	Reduction (Rattus norvegicus [10]) [%]	Reduction (Rattus norvegicus [11]) [%]
CN(C(=N)Nc1cc([S+](C)[O-])ccc1Cl)c1cccc([S+](C)[O-])c1 (centres undefined)	> 25	81	–	–	–	–	–	–	–	–	–	–	–
CSc1cccc(N(C)C(=N)Nc2cc([S+](C)[O-])ccc2Cl)c1.Cl (centres undefined)	> 25	29.5	0.834	–	–	–	–	–	–	–	–	–	–
CSc1ccc(Cl)c(NC(=N)N(C)c2cccc([S+](C)[O-])c2)c1 (single isomer, unassigned; (-))	> 25	26	0.321	–	–	–	–	–	–	–	–	–	–
CSc1ccc(Cl)c(NC(=N)N(C)c2cccc([S+](C)[O-])c2)c1 (stereo in doubt; 10)	83.1	26	0.179	100	4	31	60	8.8	32	12	–	–	–
CSc1ccc(Cl)c(NC(=N)N(C)c2cccc([S+](C)[O-])c2)c1 (stereo in doubt; 15)	> 25	23.7	0.233	–	–	–	–	–	–	–	32	–	–
CSc1cccc(N(C)C(=N)Nc2cc(SC)ccc2Cl)c1 [CNS-5161]	1.75	2.25	–	–	0.25	–	–	0.14	–	0.9	–	74	33
